Assay results: ChEMBL document CHEMBL5291721, “A preclinical secondary pharmacology resource illuminates target-adverse drug reaction associations of marketed drugs” (Nat Commun, 2023)

Tests used:
[1] = target: T1, Alpha-2C adrenergic receptor (Homo sapiens, UniProt P18825); type: functional
T1 sequence (P18825 whole entry): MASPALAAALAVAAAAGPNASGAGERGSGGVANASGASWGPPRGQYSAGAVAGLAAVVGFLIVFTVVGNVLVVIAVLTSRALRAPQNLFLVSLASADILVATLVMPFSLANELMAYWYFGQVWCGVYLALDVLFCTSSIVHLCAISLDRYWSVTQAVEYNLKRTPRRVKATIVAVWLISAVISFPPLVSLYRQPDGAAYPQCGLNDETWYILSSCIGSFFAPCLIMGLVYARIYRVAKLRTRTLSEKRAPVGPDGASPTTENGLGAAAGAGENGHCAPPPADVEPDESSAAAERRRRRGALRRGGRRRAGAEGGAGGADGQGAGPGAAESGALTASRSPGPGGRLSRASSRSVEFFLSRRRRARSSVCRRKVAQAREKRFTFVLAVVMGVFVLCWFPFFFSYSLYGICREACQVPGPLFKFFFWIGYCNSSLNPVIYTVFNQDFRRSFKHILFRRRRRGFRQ

[2] = target: T2, 5-hydroxytryptamine receptor 1A (Homo sapiens, UniProt P08908); type: functional, cell-based
T2 sequence (P08908 whole entry): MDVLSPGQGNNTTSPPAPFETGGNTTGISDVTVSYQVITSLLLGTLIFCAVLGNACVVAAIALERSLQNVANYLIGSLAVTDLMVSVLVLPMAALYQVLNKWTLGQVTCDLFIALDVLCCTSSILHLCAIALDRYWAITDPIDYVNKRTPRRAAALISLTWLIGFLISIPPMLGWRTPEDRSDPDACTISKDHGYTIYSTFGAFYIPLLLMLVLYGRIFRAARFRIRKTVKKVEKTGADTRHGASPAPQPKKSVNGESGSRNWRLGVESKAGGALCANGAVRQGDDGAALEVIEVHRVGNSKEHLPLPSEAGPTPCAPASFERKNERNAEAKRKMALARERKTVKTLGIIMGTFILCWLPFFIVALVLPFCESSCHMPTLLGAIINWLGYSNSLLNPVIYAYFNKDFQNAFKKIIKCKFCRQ

[3] = target: Voltage-gated inwardly rectifying potassium channel KCNH2 (Homo sapiens, UniProt Q12809); type: functional; conditions: read-out: AC50
Chain of Voltage-gated inwardly rectifying potassium channel KCNH2 (Q12809 whole entry): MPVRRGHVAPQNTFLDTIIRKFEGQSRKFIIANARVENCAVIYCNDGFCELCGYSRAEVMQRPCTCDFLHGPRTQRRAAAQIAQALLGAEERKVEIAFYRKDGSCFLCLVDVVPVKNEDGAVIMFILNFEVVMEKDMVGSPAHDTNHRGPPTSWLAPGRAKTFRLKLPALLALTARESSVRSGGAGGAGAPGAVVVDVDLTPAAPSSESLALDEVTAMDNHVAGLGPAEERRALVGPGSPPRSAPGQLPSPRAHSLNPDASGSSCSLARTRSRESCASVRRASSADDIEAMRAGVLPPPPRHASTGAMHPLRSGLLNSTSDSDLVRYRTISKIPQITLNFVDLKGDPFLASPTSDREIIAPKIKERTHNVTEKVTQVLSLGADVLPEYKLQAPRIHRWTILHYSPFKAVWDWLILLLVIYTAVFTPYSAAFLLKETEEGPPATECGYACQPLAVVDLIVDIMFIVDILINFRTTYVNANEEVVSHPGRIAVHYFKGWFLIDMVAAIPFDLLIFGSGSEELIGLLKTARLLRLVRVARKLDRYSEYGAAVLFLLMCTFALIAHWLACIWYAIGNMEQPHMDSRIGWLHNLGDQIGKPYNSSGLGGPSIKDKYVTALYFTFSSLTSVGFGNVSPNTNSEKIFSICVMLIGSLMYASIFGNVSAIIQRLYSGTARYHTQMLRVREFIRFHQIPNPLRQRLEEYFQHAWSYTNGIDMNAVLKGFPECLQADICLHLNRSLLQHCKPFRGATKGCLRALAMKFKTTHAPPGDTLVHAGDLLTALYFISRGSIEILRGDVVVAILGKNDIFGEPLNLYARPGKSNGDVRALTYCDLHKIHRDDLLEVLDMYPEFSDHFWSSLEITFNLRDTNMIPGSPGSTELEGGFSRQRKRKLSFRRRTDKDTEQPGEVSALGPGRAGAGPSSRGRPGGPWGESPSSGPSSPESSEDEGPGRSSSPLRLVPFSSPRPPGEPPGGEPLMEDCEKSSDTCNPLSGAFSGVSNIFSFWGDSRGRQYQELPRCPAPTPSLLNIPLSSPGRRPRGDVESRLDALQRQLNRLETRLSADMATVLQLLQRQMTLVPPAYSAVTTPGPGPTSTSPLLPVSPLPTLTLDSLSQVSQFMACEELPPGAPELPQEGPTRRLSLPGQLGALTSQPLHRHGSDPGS

[4] = target: Beta-2 adrenergic receptor (Homo sapiens, UniProt P07550); type: functional, cell-based
Chain of Beta-2 adrenergic receptor (P07550 whole entry): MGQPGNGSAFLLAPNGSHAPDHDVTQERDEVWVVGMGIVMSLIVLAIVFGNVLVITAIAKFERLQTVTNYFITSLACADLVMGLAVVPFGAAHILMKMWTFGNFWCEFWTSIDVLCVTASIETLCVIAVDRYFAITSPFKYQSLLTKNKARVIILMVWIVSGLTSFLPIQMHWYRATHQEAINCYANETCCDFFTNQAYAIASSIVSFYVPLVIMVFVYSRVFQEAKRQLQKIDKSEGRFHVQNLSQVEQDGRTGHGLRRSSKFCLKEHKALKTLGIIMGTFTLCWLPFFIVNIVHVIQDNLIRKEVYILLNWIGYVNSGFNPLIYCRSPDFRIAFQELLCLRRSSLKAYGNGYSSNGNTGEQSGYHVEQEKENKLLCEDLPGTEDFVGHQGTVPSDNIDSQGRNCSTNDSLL

[5] = target: T3, 5-hydroxytryptamine receptor 3A (Homo sapiens, UniProt P46098); type: functional
T3 sequence (P46098 whole entry): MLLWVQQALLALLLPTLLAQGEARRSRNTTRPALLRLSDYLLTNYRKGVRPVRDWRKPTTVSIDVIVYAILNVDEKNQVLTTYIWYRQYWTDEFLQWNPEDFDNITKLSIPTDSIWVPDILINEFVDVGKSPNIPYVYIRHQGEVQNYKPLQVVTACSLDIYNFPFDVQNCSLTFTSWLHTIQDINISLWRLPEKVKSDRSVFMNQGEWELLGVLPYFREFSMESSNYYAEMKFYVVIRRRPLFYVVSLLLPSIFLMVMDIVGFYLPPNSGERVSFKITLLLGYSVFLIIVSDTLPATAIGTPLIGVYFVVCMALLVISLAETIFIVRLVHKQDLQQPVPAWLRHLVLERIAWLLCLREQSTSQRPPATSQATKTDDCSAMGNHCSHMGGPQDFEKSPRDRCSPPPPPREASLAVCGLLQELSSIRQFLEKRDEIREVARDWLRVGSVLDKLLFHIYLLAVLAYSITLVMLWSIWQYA

[6] = target: T4, Muscarinic acetylcholine receptor M2 (Homo sapiens, UniProt P08172); type: functional, cell-based
T4 sequence (P08172 whole entry): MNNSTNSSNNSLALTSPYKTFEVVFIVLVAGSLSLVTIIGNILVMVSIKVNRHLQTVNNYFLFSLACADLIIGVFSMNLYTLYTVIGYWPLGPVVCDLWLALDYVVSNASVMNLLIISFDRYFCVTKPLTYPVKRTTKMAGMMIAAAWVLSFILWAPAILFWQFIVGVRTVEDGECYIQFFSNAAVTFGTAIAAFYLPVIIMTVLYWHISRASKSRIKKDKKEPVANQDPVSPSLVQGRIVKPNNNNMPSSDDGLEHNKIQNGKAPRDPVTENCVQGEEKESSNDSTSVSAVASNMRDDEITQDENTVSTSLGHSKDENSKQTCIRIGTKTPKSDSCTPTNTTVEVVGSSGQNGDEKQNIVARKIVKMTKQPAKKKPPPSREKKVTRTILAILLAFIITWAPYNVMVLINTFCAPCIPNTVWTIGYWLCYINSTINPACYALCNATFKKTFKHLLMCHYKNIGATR

[7] = target: Beta-1 adrenergic receptor (Homo sapiens, UniProt P08588); type: functional
Chain of Beta-1 adrenergic receptor (P08588 whole entry): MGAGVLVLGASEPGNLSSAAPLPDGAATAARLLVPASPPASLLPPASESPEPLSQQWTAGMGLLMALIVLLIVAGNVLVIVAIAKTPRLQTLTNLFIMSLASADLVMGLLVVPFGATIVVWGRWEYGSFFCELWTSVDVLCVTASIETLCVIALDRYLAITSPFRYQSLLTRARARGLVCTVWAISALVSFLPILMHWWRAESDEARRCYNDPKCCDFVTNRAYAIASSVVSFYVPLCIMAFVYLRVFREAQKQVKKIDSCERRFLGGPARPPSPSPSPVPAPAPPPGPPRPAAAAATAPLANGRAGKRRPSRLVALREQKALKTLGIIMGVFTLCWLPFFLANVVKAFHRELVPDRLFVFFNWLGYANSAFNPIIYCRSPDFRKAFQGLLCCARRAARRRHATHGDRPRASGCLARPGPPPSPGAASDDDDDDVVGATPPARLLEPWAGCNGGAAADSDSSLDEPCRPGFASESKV

[8] = target: T5, 5-hydroxytryptamine receptor 2C (Homo sapiens, UniProt P28335)
T5 sequence (P28335 whole entry): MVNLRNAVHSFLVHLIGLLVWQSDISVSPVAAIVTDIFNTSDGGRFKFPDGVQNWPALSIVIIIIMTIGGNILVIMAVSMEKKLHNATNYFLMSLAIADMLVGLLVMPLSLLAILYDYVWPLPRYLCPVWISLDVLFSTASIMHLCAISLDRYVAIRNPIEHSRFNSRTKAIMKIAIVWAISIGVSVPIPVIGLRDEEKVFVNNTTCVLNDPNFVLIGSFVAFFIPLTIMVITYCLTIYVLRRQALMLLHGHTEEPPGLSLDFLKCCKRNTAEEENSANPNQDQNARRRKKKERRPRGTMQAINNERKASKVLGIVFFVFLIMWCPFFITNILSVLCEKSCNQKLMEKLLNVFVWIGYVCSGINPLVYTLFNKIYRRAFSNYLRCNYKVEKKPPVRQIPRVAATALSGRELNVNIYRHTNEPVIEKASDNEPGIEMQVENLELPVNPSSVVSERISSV

Measured: AC50
Further: assay procedure not described here.

O=C1Nc2ccc(Cl)cc2[C@@](C#CC2CC2)(C(F)(F)F)O1 [EFAVIRENZ]
> 30 µM: [1] | [3] | [4] | [5]
19 µM: [7]
> 10 µM: [2] | [6]
5.61 µM: [8]

O=C(OCC(O)CO)c1ccccc1Nc1ccnc2cc(Cl)ccc12 (stereo unspecified) [GLAFENINE]
> 10 µM: [6]
1.4 µM: [3]
> 30 µM: [1] | [2] | [4] | [5] | [7] | [8]

C[C@]12CCC(=O)C=C1CC[C@@H]1[C@@H]2[C@@H](O)C[C@@]2(C)[C@H]1CC[C@]2(O)C(=O)CO [HYDROCORTISONE]
> 30 µM: [3] | [4] | [5] | [8]
> 10 µM: [1] | [2] | [6] | [7]

c1ccc([C@H]2CN3CCSC3=N2)cc1 [LEVAMISOLE]
18.8 µM: [3]
> 30 µM: [1] | [2] | [4] | [5] | [6] | [7] | [8]

C[C@@H](O)[C@H]1C(=O)N2C(C(=O)O)=C(S[C@@H]3CN[C@H](C(=O)N(C)C)C3)[C@H](C)[C@H]12 [MEROPENEM]
> 30 µM: [3]
> 300 µM: [1] | [2] | [4] | [5] | [6] | [7] | [8]

CNC1Cc2ccccc2N(C)c2ccccc21 (stereo unspecified) [METAPRAMINE]
> 30 µM: [4] | [5] | [6] | [7]
29 µM: [8]
> 10 µM: [2]
26 µM: [1]
5.9 µM: [3]

Cc1nc([N+](=O)[O-])cn1-c1ccc([N+](=O)[O-])cc1 [NITREFAZOLE]
> 30 µM: [1] | [2] | [3] | [4] | [5] | [6] | [7] | [8]

COCCCN1CCC(NC(=O)c2cc(Cl)c(N)c3c2OCC3)CC1 [PRUCALOPRIDE]
14 µM: [1]
> 30 µM: [2] | [3] | [4] | [6] | [7] | [8]
28 µM: [5]

CS(=O)(=O)c1ccc(C2=C(c3ccccc3)C(=O)OC2)cc1 [ROFECOXIB]
> 10 µM: [1] | [5] | [7]
> 30 µM: [2] | [3] | [4] | [6] | [8]

CO[C@H]1C[C@@H]2CC[C@@H](C)[C@@](O)(O2)C(=O)C(=O)N2CCCC[C@H]2C(=O)O[C@H]([C@H](C)C[C@@H]2CC[C@@H](O)[C@H](OC)C2)CC(=O)[C@H](C)/C=C(\C)[C@@H](O)[C@@H](OC)C(=O)[C@H](C)C[C@H](C)/C=C/C=C/C=C/1C [SIROLIMUS]
> 10 µM: [1] | [2] | [6] | [7]
> 30 µM: [3] | [4] | [5] | [8]

Cn1nnc2c(C(N)=O)ncn2c1=O [TEMOZOLOMIDE]
> 30 µM: [1] | [2] | [3] | [4] | [5] | [6] | [7] | [8]

N[C@@H]1[C@H]2CN(c3nc4c(cc3F)c(=O)c(C(=O)O)cn4-c3ccc(F)cc3F)C[C@@H]12 [TROVAFLOXACIN]
> 30 µM: [1] | [2] | [3] | [4] | [5] | [6] | [7] | [8]
